Reference: ChEMBL document CHEMBL5050849 (2020)

target: Ubiquitin carboxyl-terminal hydrolase 9X (Homo sapiens, UniProt Q93008); experiment: Inhibition of USP9X (unknown origin) using Ubiquitin-Rhoadmine 110 as substrate preincubated for 30 mins followed by substrate addition and measured after 11 mins by fluorescence assay; type: single protein
Sequence (Q93008 whole entry): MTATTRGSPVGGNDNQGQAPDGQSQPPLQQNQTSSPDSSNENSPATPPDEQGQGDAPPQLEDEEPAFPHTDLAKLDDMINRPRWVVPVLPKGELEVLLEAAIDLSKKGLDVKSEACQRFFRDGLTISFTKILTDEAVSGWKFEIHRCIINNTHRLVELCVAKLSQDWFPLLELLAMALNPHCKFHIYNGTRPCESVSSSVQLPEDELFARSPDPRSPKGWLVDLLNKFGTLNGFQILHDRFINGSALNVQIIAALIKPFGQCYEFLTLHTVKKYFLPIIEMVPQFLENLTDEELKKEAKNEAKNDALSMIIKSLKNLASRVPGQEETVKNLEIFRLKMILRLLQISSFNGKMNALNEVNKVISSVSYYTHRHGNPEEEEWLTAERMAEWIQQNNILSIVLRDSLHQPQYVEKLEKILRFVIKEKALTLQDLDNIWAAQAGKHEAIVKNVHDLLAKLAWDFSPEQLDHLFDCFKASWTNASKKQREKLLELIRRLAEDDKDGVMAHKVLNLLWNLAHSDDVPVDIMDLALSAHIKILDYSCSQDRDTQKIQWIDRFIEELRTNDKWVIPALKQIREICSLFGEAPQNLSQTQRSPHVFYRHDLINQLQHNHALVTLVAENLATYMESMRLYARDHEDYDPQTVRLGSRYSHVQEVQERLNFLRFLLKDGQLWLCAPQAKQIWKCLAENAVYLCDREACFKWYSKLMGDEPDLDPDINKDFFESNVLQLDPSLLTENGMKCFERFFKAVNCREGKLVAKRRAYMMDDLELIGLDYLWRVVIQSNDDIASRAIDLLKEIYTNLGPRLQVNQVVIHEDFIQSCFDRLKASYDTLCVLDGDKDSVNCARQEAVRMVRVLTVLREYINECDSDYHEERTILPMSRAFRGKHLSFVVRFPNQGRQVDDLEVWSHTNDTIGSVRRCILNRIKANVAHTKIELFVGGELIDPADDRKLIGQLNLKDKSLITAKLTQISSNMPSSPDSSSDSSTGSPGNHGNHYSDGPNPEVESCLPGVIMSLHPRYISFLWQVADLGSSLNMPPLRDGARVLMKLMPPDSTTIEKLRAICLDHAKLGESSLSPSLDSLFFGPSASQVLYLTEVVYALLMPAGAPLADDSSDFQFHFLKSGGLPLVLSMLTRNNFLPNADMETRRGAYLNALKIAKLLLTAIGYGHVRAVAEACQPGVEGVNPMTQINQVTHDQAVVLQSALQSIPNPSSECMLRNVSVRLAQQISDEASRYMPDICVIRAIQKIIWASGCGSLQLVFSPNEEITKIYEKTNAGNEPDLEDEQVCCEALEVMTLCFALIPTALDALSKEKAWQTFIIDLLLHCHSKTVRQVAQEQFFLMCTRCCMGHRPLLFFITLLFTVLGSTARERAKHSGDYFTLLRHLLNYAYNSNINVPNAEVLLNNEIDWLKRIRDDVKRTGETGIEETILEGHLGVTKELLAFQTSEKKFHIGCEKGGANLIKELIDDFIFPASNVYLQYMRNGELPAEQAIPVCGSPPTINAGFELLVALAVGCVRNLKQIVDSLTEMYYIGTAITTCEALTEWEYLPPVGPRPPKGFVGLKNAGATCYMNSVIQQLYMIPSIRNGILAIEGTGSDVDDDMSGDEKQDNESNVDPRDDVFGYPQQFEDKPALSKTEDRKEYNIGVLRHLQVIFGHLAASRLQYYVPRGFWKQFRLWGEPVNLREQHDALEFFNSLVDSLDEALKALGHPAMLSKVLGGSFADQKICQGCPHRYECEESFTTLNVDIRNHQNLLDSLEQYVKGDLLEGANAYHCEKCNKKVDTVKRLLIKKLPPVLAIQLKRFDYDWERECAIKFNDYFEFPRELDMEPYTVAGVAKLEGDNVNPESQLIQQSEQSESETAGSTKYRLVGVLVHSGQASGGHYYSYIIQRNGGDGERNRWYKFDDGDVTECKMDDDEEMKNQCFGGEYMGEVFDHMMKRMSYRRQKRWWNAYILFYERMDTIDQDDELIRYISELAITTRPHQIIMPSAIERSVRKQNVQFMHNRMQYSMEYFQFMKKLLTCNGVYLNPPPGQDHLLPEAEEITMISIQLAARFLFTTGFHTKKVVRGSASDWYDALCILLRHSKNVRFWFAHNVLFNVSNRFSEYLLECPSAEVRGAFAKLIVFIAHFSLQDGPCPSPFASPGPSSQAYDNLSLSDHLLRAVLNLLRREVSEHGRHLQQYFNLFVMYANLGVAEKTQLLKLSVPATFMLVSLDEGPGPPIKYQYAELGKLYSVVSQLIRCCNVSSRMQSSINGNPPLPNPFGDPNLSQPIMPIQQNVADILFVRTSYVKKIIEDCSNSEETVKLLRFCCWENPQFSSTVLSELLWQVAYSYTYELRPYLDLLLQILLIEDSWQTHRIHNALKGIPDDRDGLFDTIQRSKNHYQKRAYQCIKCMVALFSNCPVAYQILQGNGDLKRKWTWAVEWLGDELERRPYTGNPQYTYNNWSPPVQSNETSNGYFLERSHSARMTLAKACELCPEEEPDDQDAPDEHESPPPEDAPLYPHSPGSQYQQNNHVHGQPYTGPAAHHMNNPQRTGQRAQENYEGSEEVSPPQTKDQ

IC50, > 25 µM:
O=S(=O)(C1CCN(c2ncco2)CC1)N1Cc2cnc(C(O)c3ccccc3)cc2C1 (centres undefined)
O=S(=O)(C1CCN(c2nccs2)CC1)N1Cc2cnc(C(O)c3ccccc3)cc2C1 (centres undefined)
C[C@@H](c1ccccc1)N1Cc2cc(S(=O)(=O)c3ccc4c(c3)OCCO4)ccc2C1=O
O=S(=O)(c1ccc(-n2ccnc2)cc1)N1Cc2cnc(C(O)c3ccccc3)cc2C1 (centres undefined)
OC(c1ccccc1)c1cc2c(cn1)CN(Cc1ccc3c(c1)OCCO3)C2 (centres undefined)
O=C([C@@H](O)c1ccccc1)N1CCc2c(cnn2S(=O)(=O)c2ccc3c(c2)OCCO3)C1
O=C(c1cccc(Cl)c1)c1cc2c(cn1)CN(S(=O)(=O)c1ccc3c(c1)OCCO3)C2
COc1ccc(S(=O)(=O)N2CCc3nn(C(=O)[C@@H](O)c4ccccc4)cc3C2)cc1O
O=S(=O)(c1ccccc1)c1cc2c(cn1)CN(S(=O)(=O)c1ccc(-c3ncco3)cc1)C2
